Results as given in patent US20250325516A1, “SEROTONIN ANALOGUES FOR USE IN TREATING METALLOPTOSIS-ASSOCIATED DISORDERS” (INSTITUT CURIE, priority 2022, published 2025).
Entries after “also recorded” stand apart in the source; their conditions may differ.

Key:
[1] = tested on: PDAC cells; test: Click-labelling fluorescence microscopy with LysoTracker and organelle antibodies, PDAC cells (FIG. 9); format: cell-based; conditions: 10 μM, 3 h
Method: Pancreatic Ductal Adenocarcinoma (PDAC) cells were grown at 37° C. and 5% CO2 using medium prepared based on previously described (https://doi.org/10.1053/j.gastro.2004.03.058). Cells were plated on cover slips 24 h prior to the experiment. The cells were treated with 10 µM of compounds for 3 h and LysoTracker Deep Red (ThermoFisher Scientific L12492, 1:10000) according to the manufacturer's protocol. Subsequently, cells were washed three times with 1×PBS and fixed with 2% paraformaldehyde (w/v) in 1×PBS for 12 min, and then washed three times with 1×PBS. After fixation, cells were permeabilized with 0.1% Triton X-100 (v/v) in 1×PBS for 5 min and washed three times with 1×PBS. Then, cells were blocked in 2% BSA, 0.2% Tween-20 (w/v)/1×PBS (blocking buffer) for 20 min at RT. The click reaction cocktail was prepared from Click-iT EdU Imaging Kits (ThermoFisher Scientific, C10337) according to the manufacturer's protocol. Briefly, 868 μL of 1× Click-iT reaction buffer was mixed with 40 μl CuSO4 solution, 2 μL Alexa Fluor azide and 90 μl reaction buffer additive (sodium ascorbate) to reach a final volume of 1 mL. Cover slips were incubated with 50 μl of the click reaction cocktail in the dark at RT for 30 minutes, then washed three times with 1×PBS. Further, cells were incubated with the relevant antibody in blocking buffer for 1 h at room temperature and washed three times with blocking buffer. Then, cells were incubated with secondary antibodies for 1 h. Finally, cover slips were washed three times with 1×PBS and mounted using VECTASHIELD (Vector Laboratories) containing DAPI and were sealed with nail varnish Express manucure (Maybelline, 16P201). Fluorescence images were acquired using a Deltavision real-time microscope (Applied Precision). 100×/1.4NA objectives were used for 2D and 3D acquisitions that were deconvoluted with SoftWorx (Ratio conservative-10 iterations, Applied Precision) and processed with ImageJ.

[2] = Colorimetric assessment of metal complex formation in aqueous solution; format: binding
Method: […] assessment of complex formation: To an aqueous solution of serotonin hydrochloride (3 equiv., C=0.1 M) or A3 formic salt (3 equiv., C=0.1 M) iron (III) chloride (1 equiv.) or copper (II) sulfate (C=0.1 M) was added. A color change characterized the formation of metal complexes.

[3] = tested on: Cells treated with a ferroptosis inducer; test: BODIPY-C11 lipid peroxidation, cells treated with a ferroptosis inducer (FIG. 6a); format: cell-based; conditions: co-treatment with ferroptosis inducer
Method: (§1) Bodipy-C11 (Thermo Fisher Scientific, D3861) were used according to the manufacturer's protocol. RhoNox-M (in-house) was added to live cells prior to flow cytometry analysis for 1 h at a concentration of 1 μM. For the Annexin/PI assay (Thermo Fisher Scientific, V13245, manufacturer's protocol) BELA cells were treated with RSL3 in the presence or absence of 1 μM Liproxstatin-1 (Sigma-Aldrich, SML1414) or 10 μM A3 for 24 h. Cells were then washed twice with ice-cold 1×PBS and suspended in incubation buffer prior to being analyzed by flow cytometry. The manufacturer's protocol was followed. For each condition, at least 10,000 cells were counted. Data were recorded on an Attune (Thermo Fisher Scientific) and processed using FlowJo (FLOWJO, LLC).

[4] = tested on: Cells treated with a ferroptosis inducer; test: CellTiter-Blue cell viability with a ferroptosis inducer (FIG. 6b); format: cell-based; conditions: co-treatment with ferroptosis inducer
Method: Cell viability was evaluated by plating 4,000 cells/well in 96-well plates using CellTiter-Blue viability assay according to the manufacturer's protocol. CellTiter-Blue reagent (Promega, G8081) was added after 72 h treatment and cells were incubated for 2 h before recording fluorescence intensities (Eex. 560 nm; Eem. 590 nm) using a Perkin Elmer Wallac 1420 Victor2 Microplate Reader.

[5] = tested on: BELA cells; test: Annexin/PI flow cytometry, RSL3-treated BELA cells (FIG. 7); format: cell-based; conditions: various concentrations of RSL3, 10 μM A3, 24 h
Method: as §1

[6] = tested on: BELA cells; test: RhoNox-M (lysosomal Fe2+ probe) flow cytometry; format: cell-based; conditions: 10 μM, 24 h
Method: All cells were grown in an incubator equilibrated at 37° C. with 5% CO2, grown to confluence and split with Trypsin/EDTA (Gibco, TRYPGIB01) once or twice a week according to confluence. HMLER cells ([…]) naturally repressing E-cadherin, obtained from human mammary epithelial cells infected with a retrovirus carrying hTERT, SV40 and the oncogenic allele H-rasV12, and HMLER CD44 and TFRC ko clones were cultured in DMEM/F12 (Thermo Fisher Scientific, 31331093) supplemented with 10% FBS (v/v) (Thermo Fisher Scientific, 10270106), 10 μg/mL insulin (Sigma-Aldrich, 10516), 0.5 μg/mL hydrocortisone (Sigma-Aldrich, H0888) and 0.5 μg/ml puromycin (Life Technologies, A11138-02), unless stated otherwise. PDAC053 T cells were grown in serum-free ductal medium: DMEM/F12 supplemented with 0.61 g/500 mL nicotinamide (Sigma-Aldrich, 3376), 2.50 g/500 mL glucose (Sigma-Aldrich, G6152), 1:200 ITS+ (Corning, 354352), 1:20 Nu-serum IV (Corning, 355104), 100 ng/ml cholera toxin, 1 μM dexamethasone (Sigma-Aldrich, D4902), 50 nM 3,3′,5-triiodo-L-thyronine (Sigma-Aldrich, T6397) and 1× PenStrep. BELA cells were cultured using published procedures (Nat. Comm. doi: 10.1038/ncomms14750).
as §1

C#CCNCCc1c[nH]c2ccc(O)cc12 [Compound A3]
localization in lysosomes [1]: found to localize in lysosomes; also recorded: goes to lysosomes
colocalization with other cell organelles ([1]; organelle antibodies): not on other cell organelles; also recorded: doesn't colocalize with other cell organelles
colour of solution in the presence of FeCl3 and CuSO4, indicative of complex formation ([2]; aqueous solution, 3 equiv. compound, C=0.1 M): form differently colored solutions
complex formation with Fe(II), Fe(III) and Cu(II) ([2]; colorimetric complexation studies in solution (FIG. 1) and NMR spectroscopy (FIG. 2)): form readily complexes
lipid peroxidation (BODIPY-C11 fluorescence) induced by a ferroptosis inducer [3]: reduces lipid peroxidation; also recorded: reduction of lipid peroxidation
cell viability / cell death caused by a ferroptosis inducer [4]: rescues cell death; also recorded: rescue of cell viability
cell death induced by the ferroptosis inducer RSL3 (Annexin/propidium iodide) [5]: protects against RSL3-induced ferroptosis; also recorded: rescued cell death
RhoNox-M fluorescence (lysosomal Fe(II)) [6]: increase of RhoNox-M fluorescence
